We go through two compounds from patent EP4101830A1, “NOVEL DIARYLIODONIUM SALT MIXTURES AS LOW MOLECULAR WEIGHT PHOTOINITIATORS WITH MINIMIZED CRYSTALLIZATION BEHAVIOR AND ELEVATED SOLUBILITY” (FEW Chemicals GmbH, priority 2021, dated 2022).

Where a name gives a salt, the structure may show the parent alone.

A short description of data set [1]: Solubility of photoinitiator in sol-gel coating and layer (visual). It is filed as physicochemical. The settings on record: sol-gel coating on PET foil; result in words. Here is the method:
A sol-gel coating solution consisting of 15% TEOS, 5% epoxy-modified silanes, 75% organic solvents, and 5% water was prepared according to protocols known (R.B. Figueira et al.; Journal of Coatings Technology and Research 2015, 12, 1-35). To 10 g of this coating solution were added 0.05 g of photoinitiator test compounds (see Table 5/example 7), followed by 1 hour of stirring at room temperature. This solution was applied to a PET foil at a wet thickness of 30 µm by a doctor blade device. This material was illuminated at 254 nm for 2 min or for 5 min (UV-Crosslinker device; UVP). The abrasion resistance (500 cycles) was determined with a standard method (taber-abraser) and the decrease in gloss was measured. […] TABLE 5 / Example 7

Data set [2] in a line: Solubility in nonpolar solvents (MEK/dowanol 1:1). It is filed as physicochemical. The conditions noted are these: measured in MEK/dowanol 1:1. The source says: Thus, efficacy of photoinitiation, when given by radicals per mass, is higher for low molecular weight mixtures of the embodiment. Furthermore, the solubility in nonpolar solvents (such as ketones, ethers, esters) is improved.

For orientation: solubility means how much of the substance goes into solution per volume. A lower solubility goes with little dissolved substance.

Consider `CC(C)(C)c1ccc([I+]c2ccc(C(C)(C)C)cc2)cc1.FC(F)(F)C([O][Al-]([O]C(C(F)(F)F)(C(F)(F)F)C(F)(F)F)([O]C(C(F)(F)F)(C(F)(F)F)C(F)(F)F)[O]C(C(F)(F)F)(C(F)(F)F)C(F)(F)F)(C(F)(F)F)C(F)(F)F` [bis-(4-tert.-butyl-phenyl)-iodonium tetrakis(perfluoro-tert.-butoxy)aluminate], for which, in data set [1], the “solubility in the coating and layer” value was “visible precipitates and spots in the coat”.

In the case of `CC(C)(C)c1ccc([I+]c2ccc(C(C)(C)C)cc2)cc1` [comparative iodonium salt 1, bis[4-(1,1-dimethylethyl)phenyl]-iodonium tetraphenylborate], in data set [2], the solubility amounted to 149 mg/mL.
